Test results as given in patent publication US9511068B2, “Composition for treating or preventing diseases caused by vascular permeability, containing imatinib or pharmaceutically acceptable salt thereof as active ingredient” (AJOU UNIVERSITY INDUSTRY - ACADEMIC COOPERATION FOUNDATION, priority 2012, dated 2016).
Where a name gives a salt, the structure may show the parent alone.

Test system: retinal vascular permeability
Test: Retinal vascular permeability (FITC-dextran leakage) in STZ-induced diabetic retinopathy rat models
Type: in vivo, Sprague Dawley (SD) rats
Conditions: STZ 200 mg/kg i.p. rats; retina treated with 50, 100 or 250 μg imatinib mesylate at the same time as STZ; observed after 2 weeks by fluorescence microscope
Experimental: Sprague Dawley (SD) rats were administered intraperitoneally with streptozotocin (STZ; Sigma) at a dose of 200 mg/kg (control group), or were injected with STZ while the retina of the animal models were treated with 50, 100 or 250 μg of imatinib mesylate (Novartis, Switzerland) (test groups).
Meanwhile, after the animal models (control and test groups) were housed for 2 weeks, the animal models were anesthetized, and fluorescein isothiocyanate (FITC)-labeled dextran was injected intracardiacally so that the fluorescent substance flowed along the blood vessels.

Structure (SMILES): Cc1ccc(NC(=O)c2ccc(CN3CCN(C)CC3)cc2)cc1Nc1nccc(-c2cccnc2)n1 [imatinib mesylate]
- leak degree of the fluorescent substance (FITC-labeled dextran) in the retina / vascular permeability: significantly reduced
